Data reported in PubChem BioAssay AID248 (DTP/NCI, 2004).
Values joined by “and” are separate entries in the source; they are usually repeats but may differ in a detail not shown here. Identical values can stand only once. Inconclusive results and toxic doses are left out. Cut-off read from the data, not from the text of the source: active = T/C of 150% or more; inactive = T/C below 125%.

System: L1210 leukemia ip in BDF1 mice, survival T/C
Test: NCI In Vivo Anticancer Drug Screen. Data for tumor model L1210 Leukemia (intraperitoneal) in B6D2F1 (BDF1) mice
Conditions: endpoint: mean survival time, higher = longer survival
In short: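 Survival endpoint. Drug-treated group vs vehicle group, expressed as T divided by C. Tumor passaged by transplantation.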

[1] = dose: 100.0 mg/kg/injection, schedule: Q04DX003 (ip), vehicle: saline with Tween-80
[2] = dose: 200.0 mg/kg/injection, schedule: Q04DX003 (ip), vehicle: saline with Tween-80
[3] = dose: 400.0 mg/kg/injection, schedule: Q04DX003 (ip), vehicle: saline with Tween-80
[4] = dose: 100.0 mg/kg/injection, schedule: Q01DX009 (ip), vehicle: saline with Tween-80
[5] = dose: 200.0 mg/kg/injection, schedule: Q01DX009 (ip), vehicle: saline with Tween-80
[6] = dose: 100.0 mg/kg/injection, schedule: Q01DX001 (ip), vehicle: saline
[7] = dose: 200.0 mg/kg/injection, schedule: Q01DX001 (ip), vehicle: saline
[8] = dose: 400.0 mg/kg/injection, schedule: Q01DX001 (ip), vehicle: saline
[9] = dose: 100.0 mg/kg/injection, schedule: Q04DX003 (ip), vehicle: saline
[10] = dose: 200.0 mg/kg/injection, schedule: Q04DX003 (ip), vehicle: saline
[11] = dose: 400.0 mg/kg/injection, schedule: Q04DX003 (ip), vehicle: saline
[12] = dose: 100.0 mg/kg/injection, schedule: Q04DX003 (ip), vehicle: Klucel (hydroxypropylcellulose) (HPC)
[13] = dose: 200.0 mg/kg/injection, schedule: Q04DX003 (ip), vehicle: Klucel (hydroxypropylcellulose) (HPC)

Measured: T/C

Cc1cc(Cl)ccc1NC(=O)OCCSc1ccc(Cl)cc1
inactive: dose: 100.0 mg/kg/injection, schedule: Q01DX001 (ip), vehicle: gum acacia 94 % of control | dose: 100.0 mg/kg/injection, schedule: Q01DX009 (ip), vehicle: gum acacia 94 % of control and 95 % of control | dose: 100.0 mg/kg/injection, schedule: Q04DX003 (ip), vehicle: gum acacia 93 % of control and 94 % of control | dose: 200.0 mg/kg/injection, schedule: Q01DX001 (ip), vehicle: gum acacia 101 % of control | dose: 200.0 mg/kg/injection, schedule: Q01DX009 (ip), vehicle: gum acacia 97 % of control and 91 % of control | dose: 200.0 mg/kg/injection, schedule: Q04DX003 (ip), vehicle: gum acacia 97 % of control | dose: 400.0 mg/kg/injection, schedule: Q01DX001 (ip), vehicle: gum acacia 101 % of control | dose: 400.0 mg/kg/injection, schedule: Q01DX009 (ip), vehicle: gum acacia 93 % of control and 98 % of control | dose: 400.0 mg/kg/injection, schedule: Q04DX003 (ip), vehicle: gum acacia 95 % of control and 90 % of control

O=C1C=C(C(=O)O)CO1
inactive: dose: 100.0 mg/kg/injection, schedule: Q01DX009 (ip), vehicle: Klucel (hydroxypropylcellulose) (HPC) 95 % of control

O=C(/C=C\C(=O)c1ccc(Cl)cc1)c1ccc(Cl)cc1
inactive: dose: 50.0 mg/kg/injection, schedule: Q04DX003 (ip), vehicle: carboxymethylcellulose (CMC) 104 % of control | dose: 100.0 mg/kg/injection, schedule: Q04DX003 (ip), vehicle: carboxymethylcellulose (CMC) 112 % of control | dose: 200.0 mg/kg/injection, schedule: Q04DX003 (ip), vehicle: carboxymethylcellulose (CMC) 102 % of control

CC1=CC(C)(C2(O)c3ccccc3-c3ccccc32)C=C(C)C1
inactive: [1] 98 % of control | [2] 95 % of control | [3] 95 % of control

CC(C)OCCCNC(=O)NS(=O)(=O)c1ccc(N)cc1
inactive: [1] 101 % of control | [2] 100 % of control | [3] 92 % of control

OC1CC2CCC(C1)N2 (centres undefined)
inactive: dose: 75.0 mg/kg/injection, schedule: Q01DX001 (ip), vehicle: saline 95 % of control | dose: 150.0 mg/kg/injection, schedule: Q01DX001 (ip), vehicle: saline 91 % of control

Clc1cccc(Cl)c1C[n+]1ccccc1
inactive: dose: 9.38 mg/kg/injection, schedule: Q01DX001 (ip), vehicle: saline 110 % of control | dose: 18.75 mg/kg/injection, schedule: Q01DX001 (ip), vehicle: saline 110 % of control

CN(C)c1ccc(N=C(C#N)C(=O)c2ccccc2)cc1
inactive: [1] 95 % of control | [2] 95 % of control | [3] 102 % of control

C/C=C/C(=O)OCC (tested in a mixture with another compound)
inactive: dose: 50.0 mg/kg/injection, schedule: Q01DX009 (ip), vehicle: saline with Tween-80 97 % of control | [4] 93 % of control | [5] 93 % of control

CN(C)CCO/C(CN(C)C)=C(\C#N)c1ccccc1
inactive: dose: 15.0 mg/kg/injection, schedule: Q01DX001 (ip), vehicle: carboxymethylcellulose (CMC) 92 % of control | dose: 30.0 mg/kg/injection, schedule: Q01DX001 (ip), vehicle: carboxymethylcellulose (CMC) 95 % of control

ClC1(Cl)c2ccccc2-c2ccccc21
inactive: [6] 103 % of control | [7] 113 % of control | [8] 110 % of control

CCc1nc(N[N+](=O)[O-])nc(-c2ccccc2)c1-c1ccccc1O
inactive: dose: 100.0 mg/kg/injection, schedule: Q04DX002 (ip), vehicle: Klucel (hydroxypropylcellulose) (HPC) 107 % of control | dose: 200.0 mg/kg/injection, schedule: Q04DX002 (ip), vehicle: Klucel (hydroxypropylcellulose) (HPC) 94 % of control | dose: 400.0 mg/kg/injection, schedule: Q04DX002 (ip), vehicle: Klucel (hydroxypropylcellulose) (HPC) 107 % of control

O=S(=O)(CC(Cl)c1ccccc1)c1ccc(F)cc1 (centres undefined)
inactive: [6] 109 % of control | dose: 100.0 mg/kg/injection, schedule: Q01DX009 (ip), vehicle: saline 91 % of control | [9] 91 % of control | [7] 100 % of control | dose: 200.0 mg/kg/injection, schedule: Q01DX009 (ip), vehicle: saline 110 % of control | [10] 97 % of control | [8] 97 % of control | dose: 400.0 mg/kg/injection, schedule: Q01DX009 (ip), vehicle: saline 99 % of control | [11] 98 % of control

CCCNC(C)(C)C(SSSC(c1ccc(C(F)(F)F)cc1)C(C)(C)NCCC)c1ccc(C(F)(F)F)cc1 (centres undefined)
inactive: [4] 96 % of control | [5] 100 % of control

CC(=O)OC1CC2C(C)(C)C(=O)C3OC3C2(C)C2CCC3(C)C(=CC(=O)OC3c3ccoc3)C12C (centres undefined)
inactive: dose: 100.0 mg/kg/injection, schedule: Q01DX001 (sc), vehicle: steriod suspending solution 101 % of control | dose: 200.0 mg/kg/injection, schedule: Q01DX001 (sc), vehicle: steriod suspending solution 104 % of control | dose: 400.0 mg/kg/injection, schedule: Q01DX001 (sc), vehicle: steriod suspending solution 103 % of control

O=[N+]([O-])c1ccc2c(c1)n([O-])c1ccccc1[n+]2=O
inactive: dose: 50.0 mg/kg/injection, schedule: Q04DX003 (ip), vehicle: Klucel (hydroxypropylcellulose) (HPC) 89 % of control | dose: 100.0 mg/kg/injection, schedule: Q01DX001 (ip), vehicle: Klucel (hydroxypropylcellulose) (HPC) 97 % of control | [12] 90 % of control and 92 % of control | dose: 200.0 mg/kg/injection, schedule: Q01DX001 (ip), vehicle: Klucel (hydroxypropylcellulose) (HPC) 95 % of control | [13] 97 % of control and 101 % of control

C[P+](Cc1ccccc1)(c1ccccc1)c1ccccc1
inactive: dose: 1.25 mg/kg/injection, schedule: Q01DX001 (ip), vehicle: other 101 % of control | dose: 2.5 mg/kg/injection, schedule: Q01DX001 (ip), vehicle: other 94 % of control | dose: 5.0 mg/kg/injection, schedule: Q01DX001 (ip), vehicle: other 98 % of control

COc1ccc(C(=O)P(=O)(OC)OC)cc1
inactive: [1] 106 % of control | [2] 104 % of control | [3] 98 % of control

COC(=O)CCNC(=O)C1CSC(C)(C)N1C=O (centres undefined)
inactive: [9] 97 % of control | [10] 97 % of control | [11] 90 % of control

O=C(CCC1CCCC1)c1ccccc1
inactive: dose: 12.5 mg/kg/injection, schedule: Q04DX002 (ip), vehicle: saline 100 % of control | dose: 25.0 mg/kg/injection, schedule: Q04DX002 (ip), vehicle: saline 98 % of control | dose: 50.0 mg/kg/injection, schedule: Q04DX002 (ip), vehicle: saline 98 % of control | dose: 100.0 mg/kg/injection, schedule: Q04DX002 (ip), vehicle: saline 98 % of control | dose: 200.0 mg/kg/injection, schedule: Q04DX002 (ip), vehicle: saline 98 % of control | dose: 400.0 mg/kg/injection, schedule: Q04DX002 (ip), vehicle: saline 91 % of control

O=C(N/N=C\c1c(O)ccc2ccccc12)c1ccncc1
inactive: [12] 106 % of control | [13] 101 % of control | dose: 400.0 mg/kg/injection, schedule: Q04DX003 (ip), vehicle: Klucel (hydroxypropylcellulose) (HPC) 108 % of control

c1ccc2c(c1)ccc1cc3cccc[n+]3cc12
inactive: dose: 0.31 mg/kg/injection, schedule: Q01DX009 (ip), vehicle: saline 98 % of control | dose: 0.62 mg/kg/injection, schedule: Q01DX009 (ip), vehicle: saline 98 % of control | dose: 1.25 mg/kg/injection, schedule: Q01DX009 (ip), vehicle: saline 101 % of control and 104 % of control | dose: 5.0 mg/kg/injection, schedule: Q04DX003 (ip), vehicle: saline 102 % of control | dose: 10.0 mg/kg/injection, schedule: Q04DX003 (ip), vehicle: saline 96 % of control
